Results on eleven compounds are retold here after ChEMBL document CHEMBL1201862, “PubChem BioAssay data set” (2004).

Each structure is given as a SMILES string.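 1) Cells in 96-well plates. 2) Compound, 48 h, 5 concentrations. 3) Linear interpolation between surrounding doses. 4) Unreached endpoint = highest concentration. GI50 marks 50% less growth.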 Active and inactive are the calls of the source. Cut-off read from the data, not from the text of the source: active = GI50 up to about 1.1 µM and inactive = higher.

Among the test systems are 786-0; A549; CAKI-1; EKVX; HOP-62; KM12; LOX IMVI; MCF7; MDA-MB-435; MOLT-4; Malme-3M; NCI-H23; OVCAR-5; SK-MEL-2; T47D; TK-10; U-251; OVCAR-4; SK-MEL-28; NCI-H460.
What all share (assay): DTP human tumour cell line panel, 48 h

One may read the GI50 as the concentration at which growth is held to half of that of the control. On to `O=C(NNC(=S)NCc1ccccc1)c1csc(NC(=S)NC2CCCCC2)n1`, for which the GI50 in the test with 786-0 was 45.8 µM (inactive); in the test with A549, 37.2 µM (inactive); with CAKI-1, 47.3 µM (inactive); in the test on EKVX it was 19.2 µM (inactive); in the test on HOP-62, 64.1 µM (inactive); in the test on KM12, 49.9 µM (inactive). Also, the GI50 with LOX IMVI is 27.4 µM (inactive); in the test on MCF7, 29.6 µM (inactive); with MDA-MB-435, 26.7 µM (inactive); in the test on MOLT-4, 30.3 µM (inactive); with Malme-3M, 38.6 µM (inactive); in the test on NCI-H23, 43 µM (inactive). For the same compound, the GI50 was > 100 µM (inactive) in the test with OVCAR-5; 27 µM (inactive) with SK-MEL-2; 30 µM (inactive) with T47D; 42.5 µM (inactive) with TK-10; 33.3 µM (inactive) in the test with U-251.
`CCC(C)N1CN(c2ccccc2)C2(CCN(CCCC(=O)c3ccc(F)cc3)CC2)C1=O` (centres undefined): the GI50 in the test with 786-0 is > 100 µM (inactive); in the test on A549 it was 6.03 µM (inactive); in the test on CAKI-1, 2.25 µM (inactive); with EKVX, 10.8 µM (inactive); in the test on HOP-62 it was 1.87 µM (inactive); in the test with LOX IMVI, 2.74 µM (inactive). Further, the GI50 in the test with MCF7 was 0.381 µM (active); with MDA-MB-435 it was 13.9 µM (inactive); with MOLT-4, 3.92 µM (inactive); in the test with Malme-3M, 14.7 µM (inactive); in the test on NCI-H23, 3.57 µM (inactive); in the test on OVCAR-4, 3.03 µM (inactive). Besides, the GI50 in the test on OVCAR-5 is 0.839 µM (active); in the test on SK-MEL-28, 17.4 µM (inactive); with SK-MEL-2 it was 14.9 µM (inactive); with T47D, 1.68 µM (inactive); in the test on TK-10, 4.85 µM (inactive); in the test on U-251 it was 4.47 µM (inactive).
With `COc1cc2c3cc1Oc1c(OC)c(OC)cc4c1C(Cc1ccc(O)c(c1)-c1cc(ccc1OC)CC3N(C)CC2)N(C)CC4` (centres undefined), the GI50 is 29 µM (inactive) in the test on 786-0; 24.5 µM (inactive) with A549; 16.4 µM (inactive) in the test on CAKI-1; 25.6 µM (inactive) in the test with EKVX; 17.5 µM (inactive) in the test on KM12; 4.8 µM (inactive) in the test on LOX IMVI. Also, the GI50 was 16.5 µM (inactive) with MCF7; 23.6 µM (inactive) in the test on MDA-MB-435; 11.8 µM (inactive) in the test on MOLT-4; 18.2 µM (inactive) in the test with Malme-3M; 21.4 µM (inactive) in the test with NCI-H23; 16 µM (inactive) in the test on NCI-H460. Moreover, the GI50 is 29.4 µM (inactive) in the test on OVCAR-4; 44.8 µM (inactive) in the test on OVCAR-5; 27 µM (inactive) in the test with SK-MEL-28; 19.5 µM (inactive) in the test on SK-MEL-2; 24.2 µM (inactive) in the test on T47D; 32.9 µM (inactive) with TK-10. Moreover, the GI50 in the test with U-251 is 28.1 µM (inactive).
On to `O=C1NC(N2CCOCC2)=N/C1=C\c1cccs1`, for which the GI50 in the test with 786-0 was > 100 µM (inactive); in the test with A549, > 100 µM (inactive); in the test with CAKI-1, > 100 µM (inactive); with EKVX, > 100 µM (inactive); in the test on HOP-62, > 100 µM (inactive); with KM12, 36.2 µM (inactive). Besides, the GI50 with LOX IMVI, in the test with MCF7, in the test on MDA-MB-435, in the test on MOLT-4, in the test with Malme-3M and with NCI-H23 was > 100 µM (inactive) in each case. In addition, the GI50 in the test on OVCAR-4, in the test with OVCAR-5, with SK-MEL-28, in the test with SK-MEL-2, with T47D and with TK-10 was > 100 µM (inactive) throughout. Further, the GI50 in the test with U-251 is > 100 µM (inactive).
As for `CCc1c(-c2ccc(OC)cc2)c(=O)oc2cc(O)ccc12`, the GI50 with 786-0 is 51.2 µM (inactive); with A549, 27.3 µM (inactive); in the test with CAKI-1, 39.3 µM (inactive); with EKVX, 29.4 µM (inactive); in the test with HOP-62 it was 54 µM (inactive); in the test on KM12, 37.2 µM (inactive). Besides, the GI50 in the test with LOX IMVI is 30.1 µM (inactive); in the test on MCF7, 32.7 µM (inactive); in the test on MDA-MB-435 it was 27.6 µM (inactive); in the test with MOLT-4, 16 µM (inactive); in the test on Malme-3M, 25.5 µM (inactive); in the test on NCI-H23, 49.1 µM (inactive). In addition, the GI50 is 23.9 µM (inactive) in the test with NCI-H460; 33.8 µM (inactive) in the test on OVCAR-4; > 100 µM (inactive) in the test on OVCAR-5; 36.7 µM (inactive) with SK-MEL-28; > 100 µM (inactive) in the test on SK-MEL-2; 30.6 µM (inactive) in the test with T47D. The GI50 with U-251 was 38.4 µM (inactive).
In the case of `CC(C)Oc1ccc2c(c1)OCC1Cc3ccccc3OC21` (centres undefined), the GI50 with 786-0 is > 100 µM (inactive); in the test with A549, > 100 µM (inactive); in the test with CAKI-1, > 100 µM (inactive); in the test with EKVX, 75.9 µM (inactive); in the test on HOP-62 it was > 100 µM (inactive); with KM12 it was > 100 µM (inactive). Moreover, the GI50 was > 100 µM (inactive) in the test with LOX IMVI; 46.8 µM (inactive) in the test on MCF7; 63.2 µM (inactive) in the test on MDA-MB-435; 36.2 µM (inactive) with MOLT-4; > 100 µM (inactive) in the test with Malme-3M; 89.9 µM (inactive) in the test with NCI-H23. In addition, the GI50 is > 100 µM (inactive) in the test on OVCAR-5; > 100 µM (inactive) with SK-MEL-2; 55.2 µM (inactive) in the test with T47D; 51.3 µM (inactive) with TK-10; > 100 µM (inactive) with U-251.
Turning to `Cc1cc(OC(=O)Nc2cccc3ccccc23)c(C(C)C)cc1C(=S)Nc1ccccc1`, the GI50 with 786-0 is 23.4 µM (inactive); in the test on A549, 21.8 µM (inactive); with CAKI-1, 22.1 µM (inactive); with EKVX, 23.7 µM (inactive); with HOP-62 it was 16.6 µM (inactive); in the test with KM12, 16.3 µM (inactive). Also, the GI50 with LOX IMVI was 14.7 µM (inactive); in the test on MCF7 it was 17.4 µM (inactive); with MDA-MB-435, 18.1 µM (inactive); in the test on MOLT-4, 11.4 µM (inactive); in the test on Malme-3M, 17.3 µM (inactive); in the test on NCI-H23, 15.7 µM (inactive). Further, the GI50 is 16.9 µM (inactive) in the test with NCI-H460; 11 µM (inactive) in the test on OVCAR-4; 20.7 µM (inactive) in the test on OVCAR-5; 18 µM (inactive) in the test with SK-MEL-28; 13.7 µM (inactive) in the test on SK-MEL-2; 8.17 µM (inactive) in the test with T47D. For the same compound, the GI50 in the test on U-251 is 18.1 µM (inactive).
For `Cc1nnc2sc(-c3ccc(-c4ccccc4Cl)o3)nn12`, the GI50 in the test on 786-0 was 26.9 µM (inactive); with A549, 34.8 µM (inactive); in the test with CAKI-1, 56 µM (inactive); with EKVX, 33 µM (inactive); in the test on HOP-62 it was > 100 µM (inactive); with KM12, 35.2 µM (inactive). Also, the GI50 with LOX IMVI was 20.9 µM (inactive); with MCF7 it was 29.1 µM (inactive); in the test with MDA-MB-435 it was 18.9 µM (inactive); in the test with MOLT-4, 19 µM (inactive); in the test with Malme-3M it was 47.3 µM (inactive); in the test on NCI-H23, 24.2 µM (inactive). Further, the GI50 is 35.1 µM (inactive) in the test with NCI-H460; 31.8 µM (inactive) in the test on OVCAR-4; > 100 µM (inactive) in the test on OVCAR-5; 26.1 µM (inactive) in the test with SK-MEL-2; 20.9 µM (inactive) with T47D; 45.1 µM (inactive) in the test on TK-10. Further, the GI50 with U-251 was 32.5 µM (inactive).
For `CN(C)C(=S)S` [SODIUM DIMETHYLCARBAMODITHIOATE], the GI50 in the test with 786-0 is > 70 µM (inactive); in the test with A549 it was > 100 µM (inactive); with CAKI-1, 63.1 µM (inactive); in the test on EKVX, > 94.6 µM (inactive); with KM12, > 25.2 µM (inactive); in the test with LOX IMVI, 34.4 µM (inactive). In addition, the GI50 in the test on MCF7 was > 100 µM (inactive); in the test on MDA-MB-435, > 78 µM (inactive); with MOLT-4, 35.4 µM (inactive); in the test with Malme-3M, > 43.8 µM (inactive); with NCI-H23, > 50.8 µM (inactive); with NCI-H460, 4.68 µM (inactive). For the same compound, the GI50 in the test on OVCAR-4 is 36.9 µM (inactive); with OVCAR-5 it was > 100 µM (inactive); in the test with SK-MEL-28, > 64.4 µM (inactive); in the test on SK-MEL-2, 18.1 µM (inactive); in the test with T47D, > 100 µM (inactive); in the test on TK-10, > 100 µM (inactive). The GI50 with U-251 is 98.6 µM (inactive).
With `Cc1cc2c(O)nc(N)nc2nc1C`, the GI50 in the test with 786-0, in the test with A549, in the test with CAKI-1, with EKVX, with HOP-62 and with KM12 was > 100 µM (inactive) each time. Moreover, the GI50 with LOX IMVI, with MCF7, in the test with MDA-MB-435, in the test on Malme-3M, with NCI-H23 and in the test with NCI-H460 was > 100 µM (inactive) in each case. For the same compound, the GI50 in the test on OVCAR-4, in the test on OVCAR-5, in the test with SK-MEL-28, in the test on SK-MEL-2, with T47D and in the test on TK-10 was > 100 µM (inactive) each time. The GI50 in the test on U-251 was > 100 µM (inactive).
With `CNC(=O)OCc1c(COC(=O)NC)c(C)n(-c2ccc(Br)cc2)c1C`, the GI50 with 786-0 was 9.82 µM (inactive); in the test with A549, 16.9 µM (inactive); with CAKI-1, 4.02 µM (inactive); in the test on EKVX it was 27.3 µM (inactive); with HOP-62, 13.2 µM (inactive); with KM12 it was 14.4 µM (inactive). Further, the GI50 in the test with LOX IMVI was 6.24 µM (inactive); with MCF7, 11.3 µM (inactive); in the test on MDA-MB-435, 16.8 µM (inactive); in the test on MOLT-4, 6.79 µM (inactive); with Malme-3M it was 17.6 µM (inactive); in the test on NCI-H23, 14.3 µM (inactive). The GI50 in the test with NCI-H460 is 8.2 µM (inactive); in the test with OVCAR-5 it was 12.9 µM (inactive); with SK-MEL-28, 16.4 µM (inactive); in the test on SK-MEL-2, 15.5 µM (inactive); in the test with T47D it was 10.2 µM (inactive); with TK-10, 11 µM (inactive). In addition, the GI50 in the test on U-251 is 10.7 µM (inactive).
